This passage reports IC50 and Ki results from ChEMBL document CHEMBL1909046, “DrugMatrix in vitro pharmacology data”.

C-C chemokine receptor type 5, sequence (P51681 whole entry): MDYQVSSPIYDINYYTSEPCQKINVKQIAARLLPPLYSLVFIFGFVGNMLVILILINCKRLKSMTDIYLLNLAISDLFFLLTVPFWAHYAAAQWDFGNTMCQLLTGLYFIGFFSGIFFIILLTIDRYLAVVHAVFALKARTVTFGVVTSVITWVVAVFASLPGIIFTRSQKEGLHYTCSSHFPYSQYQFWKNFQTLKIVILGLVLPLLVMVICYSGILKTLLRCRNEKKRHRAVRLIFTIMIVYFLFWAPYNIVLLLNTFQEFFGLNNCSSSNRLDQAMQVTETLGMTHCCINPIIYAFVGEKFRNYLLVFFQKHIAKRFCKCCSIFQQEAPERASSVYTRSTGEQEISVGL

For the first test, the target named is T1, C-X-C chemokine receptor type 2 (Homo sapiens, UniProt P25025). Further: in other assays of this panel Not Active means under 50% inhibition at 10 µM.
T1 sequence (P25025 whole entry): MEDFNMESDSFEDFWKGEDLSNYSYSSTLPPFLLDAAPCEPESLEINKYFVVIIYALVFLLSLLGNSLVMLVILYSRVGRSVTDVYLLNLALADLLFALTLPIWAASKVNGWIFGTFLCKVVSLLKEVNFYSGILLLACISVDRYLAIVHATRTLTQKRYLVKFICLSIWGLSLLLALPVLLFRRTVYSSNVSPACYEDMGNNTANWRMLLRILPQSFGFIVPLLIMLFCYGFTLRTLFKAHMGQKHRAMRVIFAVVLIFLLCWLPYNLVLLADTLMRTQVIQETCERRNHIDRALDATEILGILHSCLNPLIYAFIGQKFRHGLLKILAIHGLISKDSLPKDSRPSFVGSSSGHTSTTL
Format: cell membranes, Membrane. The conditions noted are these: cho-k1.
`CC(C(=O)O)c1ccc(CC2CCCC2=O)cc1` (stereo unspecified) [LOXOPROFEN]: the IC50 entry was “Not Active”.
Same read-out and setting: the value for `Cc1cccc(Nc2ccccc2C(=O)O)c1C` [MEFENAMIC ACID] was “Not Active”; that for `CC(=O)O[C@]1(C(C)=O)CC[C@H]2[C@@H]3C=C(C)C4=CC(=O)CC[C@]4(C)[C@H]3CC[C@@]21C` [MEGESTROL ACETATE] was “Not Active”.
Still for that read-out and setting: the same measure for `COc1ccccc1OCC(O)COC(N)=O` (stereo unspecified) [METHOCARBAMOL]: “Not Active”.
Same read-out and setting: the value for `CN(Cc1cnc2nc(N)nc(N)c2n1)c1ccc(C(=O)N[C@@H](CCC(=O)O)C(=O)O)cc1` [METHOTREXATE] was “Not Active”; that for `COC(=O)c1ccccc1O` [METHYL SALICYLATE] was “Not Active”.
`COc1ccc2cc(CCC(C)=O)ccc2c1` [NABUMETONE]: the IC50 result is given as “Not Active”.

The target in another test is T2, Alpha-1D adrenergic receptor (Homo sapiens, UniProt P25100). Further: in other assays of this panel Not Active means under 50% inhibition at 10 µM.
T2 sequence (P25100 whole entry): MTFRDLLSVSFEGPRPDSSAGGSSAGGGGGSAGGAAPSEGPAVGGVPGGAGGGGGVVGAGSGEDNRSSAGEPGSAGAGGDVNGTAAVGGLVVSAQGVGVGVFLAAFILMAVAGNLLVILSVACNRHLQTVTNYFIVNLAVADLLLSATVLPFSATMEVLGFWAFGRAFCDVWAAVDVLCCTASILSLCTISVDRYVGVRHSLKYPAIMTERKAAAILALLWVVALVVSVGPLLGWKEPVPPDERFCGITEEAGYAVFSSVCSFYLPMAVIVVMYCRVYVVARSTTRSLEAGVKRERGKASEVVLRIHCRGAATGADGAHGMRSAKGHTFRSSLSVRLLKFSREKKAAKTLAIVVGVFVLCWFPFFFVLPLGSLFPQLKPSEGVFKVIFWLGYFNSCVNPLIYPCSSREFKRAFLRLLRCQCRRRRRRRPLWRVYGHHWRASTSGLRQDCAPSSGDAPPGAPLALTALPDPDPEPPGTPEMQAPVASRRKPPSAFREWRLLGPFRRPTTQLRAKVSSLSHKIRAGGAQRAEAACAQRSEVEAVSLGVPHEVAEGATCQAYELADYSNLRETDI
Format: cell membranes, HEK293, Membrane. The conditions noted are these: hek293.
As for `CC(C(=O)O)c1ccc(CC2CCCC2=O)cc1` (stereo unspecified) [LOXOPROFEN], the IC50 entry is given as “Not Active”.
Still for that read-out and setting: the same measure for `Cc1cccc(Nc2ccccc2C(=O)O)c1C` [MEFENAMIC ACID]: “Not Active”.
Same read-out and setting: the same measure for `CC(=O)O[C@]1(C(C)=O)CC[C@H]2[C@@H]3C=C(C)C4=CC(=O)CC[C@]4(C)[C@H]3CC[C@@]21C` [MEGESTROL ACETATE]: “Not Active”; for `COc1ccccc1OCC(O)COC(N)=O` (stereo unspecified) [METHOCARBAMOL]: “Not Active”; for `CN(Cc1cnc2nc(N)nc(N)c2n1)c1ccc(C(=O)N[C@@H](CCC(=O)O)C(=O)O)cc1` [METHOTREXATE]: “Not Active”.
On the same count and under the same terms, the same measure for `COC(=O)c1ccccc1O` [METHYL SALICYLATE]: “Not Active”; for `COc1ccc2cc(CCC(C)=O)ccc2c1` [NABUMETONE]: “Not Active”.

Another test concerns the target T3, Nitric oxide synthase, inducible (Mus musculus, UniProt P29477).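 Further: inhibition of iNOS enzyme activity measured with L-arginine as substrate; in other assays of this panel Not Active means under 50% inhibition at 10 µM.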
T3 sequence (P29477 whole entry): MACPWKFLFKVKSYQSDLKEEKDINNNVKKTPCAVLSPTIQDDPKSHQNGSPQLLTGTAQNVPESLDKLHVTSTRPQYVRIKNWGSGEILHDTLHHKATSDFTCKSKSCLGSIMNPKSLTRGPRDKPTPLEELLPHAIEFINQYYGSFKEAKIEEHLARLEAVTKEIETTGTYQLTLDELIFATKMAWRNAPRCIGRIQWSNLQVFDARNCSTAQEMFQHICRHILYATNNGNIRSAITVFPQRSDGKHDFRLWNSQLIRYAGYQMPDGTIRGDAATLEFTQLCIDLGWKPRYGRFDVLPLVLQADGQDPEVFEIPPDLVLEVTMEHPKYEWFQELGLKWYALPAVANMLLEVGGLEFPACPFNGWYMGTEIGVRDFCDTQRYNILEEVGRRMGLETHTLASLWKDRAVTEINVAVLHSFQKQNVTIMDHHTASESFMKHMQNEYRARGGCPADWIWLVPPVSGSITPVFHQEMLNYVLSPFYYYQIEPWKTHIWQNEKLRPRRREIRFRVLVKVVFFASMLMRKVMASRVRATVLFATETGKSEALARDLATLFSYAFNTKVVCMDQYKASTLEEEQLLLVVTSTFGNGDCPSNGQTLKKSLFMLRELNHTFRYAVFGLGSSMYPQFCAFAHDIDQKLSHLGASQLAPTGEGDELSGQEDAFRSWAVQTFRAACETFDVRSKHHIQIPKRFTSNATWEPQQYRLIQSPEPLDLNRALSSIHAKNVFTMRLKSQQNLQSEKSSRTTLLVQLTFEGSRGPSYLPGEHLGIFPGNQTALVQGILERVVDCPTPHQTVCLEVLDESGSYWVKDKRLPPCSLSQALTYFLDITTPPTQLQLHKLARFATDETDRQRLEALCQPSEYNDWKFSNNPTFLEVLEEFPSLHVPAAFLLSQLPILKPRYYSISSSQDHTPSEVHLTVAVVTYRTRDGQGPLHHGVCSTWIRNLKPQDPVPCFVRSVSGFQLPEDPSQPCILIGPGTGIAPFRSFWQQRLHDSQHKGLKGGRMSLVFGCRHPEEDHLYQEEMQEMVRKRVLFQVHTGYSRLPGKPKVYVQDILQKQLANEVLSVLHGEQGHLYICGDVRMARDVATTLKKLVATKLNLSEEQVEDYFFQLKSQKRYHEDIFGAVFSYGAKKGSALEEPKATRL
More on the design: species or system Escherichia coli.
Conditions: not given
Take `CC(C(=O)O)c1ccc(CC2CCCC2=O)cc1` (stereo unspecified) [LOXOPROFEN]: the IC50 entry was “Not Active”.
On the same count and under the same terms, the value for `Cc1cccc(Nc2ccccc2C(=O)O)c1C` [MEFENAMIC ACID] was “Not Active”; that for `CC(=O)O[C@]1(C(C)=O)CC[C@H]2[C@@H]3C=C(C)C4=CC(=O)CC[C@]4(C)[C@H]3CC[C@@]21C` [MEGESTROL ACETATE] was “Not Active”.
Consider `COc1ccccc1OCC(O)COC(N)=O` (stereo unspecified) [METHOCARBAMOL], for which the IC50 entry is “Not Active”.
As to `CN(Cc1cnc2nc(N)nc(N)c2n1)c1ccc(C(=O)N[C@@H](CCC(=O)O)C(=O)O)cc1` [METHOTREXATE], the IC50 entry is reported as “Not Active”.
Same read-out and setting: the same measure for `COC(=O)c1ccccc1O` [METHYL SALICYLATE]: “Not Active”; for `COc1ccc2cc(CCC(C)=O)ccc2c1` [NABUMETONE]: “Not Active”.

A further test has as its target C-C chemokine receptor type 5 (Homo sapiens, UniProt P51681). Format: cell membranes, Membrane. The settings on record: hek293. Further: in other assays of this panel Not Active means under 50% inhibition at 10 µM.
For the molecule `CC(C(=O)O)c1ccc(CC2CCCC2=O)cc1` (stereo unspecified) [LOXOPROFEN], the IC50 result is “Not Active”.
In the case of `Cc1cccc(Nc2ccccc2C(=O)O)c1C` [MEFENAMIC ACID], the IC50 entry is on record as “Not Active”.
On the same count and under the same terms, the same measure for `CC(=O)O[C@]1(C(C)=O)CC[C@H]2[C@@H]3C=C(C)C4=CC(=O)CC[C@]4(C)[C@H]3CC[C@@]21C` [MEGESTROL ACETATE]: “Not Active”; for `COc1ccccc1OCC(O)COC(N)=O` (stereo unspecified) [METHOCARBAMOL]: “Not Active”; for `CN(Cc1cnc2nc(N)nc(N)c2n1)c1ccc(C(=O)N[C@@H](CCC(=O)O)C(=O)O)cc1` [METHOTREXATE]: “Not Active”.
Same read-out and setting: the same measure for `COC(=O)c1ccccc1O` [METHYL SALICYLATE]: “Not Active”; for `COc1ccc2cc(CCC(C)=O)ccc2c1` [NABUMETONE]: “Not Active”.

The target of another test is T4, Vasoactive intestinal polypeptide receptor 1 (Homo sapiens, UniProt P32241). Further: in other assays of this panel Not Active means under 50% inhibition at 10 µM.
T4 sequence (P32241 whole entry): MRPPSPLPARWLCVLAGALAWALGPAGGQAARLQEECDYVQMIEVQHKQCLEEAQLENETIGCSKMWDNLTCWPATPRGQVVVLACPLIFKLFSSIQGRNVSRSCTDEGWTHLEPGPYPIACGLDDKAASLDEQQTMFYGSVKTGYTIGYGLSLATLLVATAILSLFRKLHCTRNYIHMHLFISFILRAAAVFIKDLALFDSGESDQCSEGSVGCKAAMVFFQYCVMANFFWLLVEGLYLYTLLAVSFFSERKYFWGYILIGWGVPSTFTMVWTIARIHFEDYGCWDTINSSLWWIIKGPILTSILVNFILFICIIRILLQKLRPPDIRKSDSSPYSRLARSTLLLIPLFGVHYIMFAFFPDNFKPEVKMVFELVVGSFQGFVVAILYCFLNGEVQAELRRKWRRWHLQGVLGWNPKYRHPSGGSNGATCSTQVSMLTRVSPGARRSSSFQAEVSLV
Format: cell membranes, Membrane. The settings on record: ht-29.
With `CC(C(=O)O)c1ccc(CC2CCCC2=O)cc1` (stereo unspecified) [LOXOPROFEN], the IC50 result is listed as “Not Active”.
Same read-out and setting: the same measure for `Cc1cccc(Nc2ccccc2C(=O)O)c1C` [MEFENAMIC ACID]: “Not Active”; for `CC(=O)O[C@]1(C(C)=O)CC[C@H]2[C@@H]3C=C(C)C4=CC(=O)CC[C@]4(C)[C@H]3CC[C@@]21C` [MEGESTROL ACETATE]: “Not Active”.
As for `COc1ccccc1OCC(O)COC(N)=O` (stereo unspecified) [METHOCARBAMOL], the IC50 entry was “Not Active”.
Still for that read-out and setting: the same measure for `CN(Cc1cnc2nc(N)nc(N)c2n1)c1ccc(C(=O)N[C@@H](CCC(=O)O)C(=O)O)cc1` [METHOTREXATE]: “Not Active”; for `COC(=O)c1ccccc1O` [METHYL SALICYLATE]: “Not Active”.
The same measure, in the same setting: the same measure for `COc1ccc2cc(CCC(C)=O)ccc2c1` [NABUMETONE]: “Not Active”.

Test system in the next test: not listed separately
The test is described as follows: DRUGMATRIX: Platelet-Derived Growth Factor (PDGF) radioligand binding (ligand: [125I] PDGF). Format: cell-based. The settings on record: nih3t3; Not Active = under 50% inhibition at 10 µM.
For `CC(C(=O)O)c1ccc(CC2CCCC2=O)cc1` (stereo unspecified) [LOXOPROFEN], the IC50 entry is listed as “Not Active” and the Ki result is recorded as “Not Active”.
For the molecule `Cc1cccc(Nc2ccccc2C(=O)O)c1C` [MEFENAMIC ACID], the IC50 entry is listed as “Not Active” and the Ki result is “Not Active”.
Regarding `CC(=O)O[C@]1(C(C)=O)CC[C@H]2[C@@H]3C=C(C)C4=CC(=O)CC[C@]4(C)[C@H]3CC[C@@]21C` [MEGESTROL ACETATE], the IC50 entry is reported as “Not Active” and the Ki entry is recorded as “Not Active”.
For the molecule `COc1ccccc1OCC(O)COC(N)=O` (stereo unspecified) [METHOCARBAMOL], the IC50 entry was “Not Active” and the Ki entry is “Not Active”.
As for `CN(Cc1cnc2nc(N)nc(N)c2n1)c1ccc(C(=O)N[C@@H](CCC(=O)O)C(=O)O)cc1` [METHOTREXATE], the IC50 result is reported as “Not Active” and the Ki entry is recorded as “Not Active”.
For the molecule `COC(=O)c1ccccc1O` [METHYL SALICYLATE], the IC50 entry is given as “Not Active” and the Ki entry is on record as “Not Active”.
Consider `COc1ccc2cc(CCC(C)=O)ccc2c1` [NABUMETONE], for which the IC50 entry is recorded as “Not Active” and the Ki entry is “Not Active”.

For a further test, the target named is Kappa-type opioid receptor (Homo sapiens, UniProt P41145). The test is described as follows: DRUGMATRIX: Opiate kappa (OP2, KOP) radioligand binding (ligand: [3H] Diprenorphine). Format: cell membranes, HEK293, Membrane. The settings on record: hek293; Not Active = under 50% inhibition at 10 µM.
Kappa-type opioid receptor, sequence (P41145 whole entry): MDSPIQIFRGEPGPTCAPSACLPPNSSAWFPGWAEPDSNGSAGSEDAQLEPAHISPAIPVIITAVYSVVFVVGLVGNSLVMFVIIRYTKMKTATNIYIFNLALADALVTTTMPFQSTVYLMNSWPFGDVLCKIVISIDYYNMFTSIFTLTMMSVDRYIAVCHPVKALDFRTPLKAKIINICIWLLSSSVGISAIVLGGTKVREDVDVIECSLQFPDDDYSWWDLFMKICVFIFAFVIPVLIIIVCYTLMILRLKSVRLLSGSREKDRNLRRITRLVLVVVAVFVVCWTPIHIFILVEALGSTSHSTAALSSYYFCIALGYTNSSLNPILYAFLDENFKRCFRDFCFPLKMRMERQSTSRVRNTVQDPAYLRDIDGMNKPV
Consider `CC(C(=O)O)c1ccc(CC2CCCC2=O)cc1` (stereo unspecified) [LOXOPROFEN], for which the IC50 entry is reported as “Not Active”.
On the same count and under the same terms, the same measure for `Cc1cccc(Nc2ccccc2C(=O)O)c1C` [MEFENAMIC ACID]: “Not Active”.
Still for that read-out and setting: the value for `CC(=O)O[C@]1(C(C)=O)CC[C@H]2[C@@H]3C=C(C)C4=CC(=O)CC[C@]4(C)[C@H]3CC[C@@]21C` [MEGESTROL ACETATE] was “Not Active”.
The same measure, in the same setting: the same measure for `COc1ccccc1OCC(O)COC(N)=O` (stereo unspecified) [METHOCARBAMOL]: “Not Active”; for `CN(Cc1cnc2nc(N)nc(N)c2n1)c1ccc(C(=O)N[C@@H](CCC(=O)O)C(=O)O)cc1` [METHOTREXATE]: “Not Active”.
Turning to `COC(=O)c1ccccc1O` [METHYL SALICYLATE], the IC50 result is reported as “Not Active”.
Still for that read-out and setting: the same measure for `COc1ccc2cc(CCC(C)=O)ccc2c1` [NABUMETONE]: “Not Active”.
